Data on 25 compounds can be found in publication PMC10648877, “Novel Substituted Azoloazines with Anticoagulant Activity” (International Journal of Molecular Sciences, 2023).

The test system of data set [1] is platelet-poor plasma (PPP). Put plainly: Activated partial thromboplastin time (APTT), rabbit blood coagulogram in vitro.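 Also: clotting time read chronometrically on a hemocoagulometer with commercial reagent kits, one of several coagulogram parameters alongside thrombin and prothrombin time.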 It counts as biochemical. The settings on record: 100 μM, M ± m, n = 6.
Method: Test compounds and the reference drug were evaluated at a concentration of 100 μM. Effect on rabbit blood coagulograms in vitro was determined chronometrically with a SOLAR hemocoagulometer (Minsk, Belarus) using commercial kits (Technology-Standard, Barnaul, Russia) as per the manufacturer’s instructions. The following parameters were determined: activated partial thromboplastin time, thrombin time, and prothrombin time.
For data set [2], the system named is platelet-poor plasma (PPP). Put plainly: Thrombin time (TT), rabbit blood coagulogram in vitro. The format is biochemical. The settings on record: rabbit blood in vitro, 100 μM; for TT: M ± m, n = 6.
Data set [3] deals with platelet-poor plasma (PPP). Description: Prothrombin time (PT), rabbit blood coagulogram in vitro.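 Also: clotting time read chronometrically on a hemocoagulometer using commercial reagent kits, with dabigatran etexilate at the same concentration as reference anticoagulant.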 The settings on record: 100 μM, M ± m, n = 6.
Method: The study was performed on platelet-poor plasma (PPP) stabilized with a 3.8% sodium citrate solution in a ratio of 9:1 according to the method described in [34]. Dabigatran etexilate (Boehringer Ingelheim Pharma GmbH and Co., Ingelheim am Rhein, Germany) was used as the reference drug. Test compounds and the reference drug were evaluated at a concentration of 100 μM. Effect on rabbit blood coagulograms in vitro was determined chronometrically with a SOLAR hemocoagulometer (Minsk, Belarus) using commercial kits (Technology-Standard, Barnaul, Russia) as per the manufacturer’s instructions. The following parameters were determined: activated partial thromboplastin time, thrombin time, and prothrombin time.

Structures are written as SMILES.

Turning to `Cc1cc2nc3c4ccccc4n(CCN(C)C)c3nc2cc1C` [Compound 1a], the “APTT” value in data set [1] is recorded as 22.1 ± 5.9 s. The “TT” value in data set [2] turned out to be 22.7 ± 2.0 s. Further, the “PT” value in data set [3] came to 14.5 ± 0.0 s.
Take `CN(C)CCn1c2ccccc2c2nc3ccccc3nc21` [Compound 1b]: the “APTT” value in data set [1] was 26.8 ± 2.4 s. In addition, the “TT” value in data set [2] was 23.9 ± 0.9 s. In data set [3], the “PT” value worked out at 13.3 ± 0.2 s.
With `Cc1cc2nc3c4ccccc4n(CCN4CCOCC4)c3nc2cc1C` [Compound 1c], the “APTT” value in data set [1] amounted to 27.1 ± 2.0 s. Further, the “TT” value in data set [2] was 26.2 ± 1.0 s. The “PT” value in data set [3] came out at 13.8 ± 0.4 s.
Regarding `c1ccc2nc3c(nc2c1)c1ccccc1n3CCN1CCOCC1` [Compound 1d], the “APTT” value in data set [1] is recorded as 18.2 ± 0.5 s. Besides, in data set [2], the “TT” value is 26.7 ± 1.3 s. For the same compound, the “PT” value in data set [3] was found to be 13.4 ± 0.3 s.
Regarding `CCCn1c2ccccc2c2nc3cc(C)c(C)cc3nc21` [Compound 1e], the “APTT” value in data set [1] is recorded as 29.6 ± 0.2 s. For the same compound, in data set [2], the “TT” value is 38.0 ± 0.5 s. The “PT” value in data set [3] was determined as 13.4 ± 0.1 s.
Consider `CCCn1c2ccccc2c2nc3ccccc3nc21` [Compound 1f], for which, in data set [1], the “APTT” value is 24.8 ± 4.2 s. Besides, in data set [2], the “increase of thrombin time relative to the control” value is listed as 3.5 times and the “TT” value is 39.3 ± 1.8 s. In addition, the “PT” value in data set [3] is given as 13.1 ± 0.3 s.
Consider `CCCCn1c2ccccc2c2nc3cc(C)c(C)cc3nc21` [Compound 1g], for which, in data set [1], the “APTT” value is given as 30.6 ± 1.6 s. In addition, the “TT” value in data set [2] is given as 34.1 ± 0.9 s. Moreover, the “PT” value in data set [3] is on record as 11.7 ± 0.4 s.
On to `CCCCn1c2ccccc2c2nc3ccccc3nc21` [Compound 1h], for which the “APTT” value in data set [1] is reported as 25.7 ± 3.1 s. Besides, in data set [2], the “TT” value came to 35.6 ± 1.1 s. The “PT” value in data set [3] was determined as 13.9 ± 0.1 s.
Regarding `Cc1cc2nc3c4ccccc4n(CCCN(C)C)c3nc2cc1C` [Compound 1i], in data set [1], the “APTT” value worked out at 32.1 ± 4.8 s. Also, in data set [2], the “TT” value is 21.9 ± 1.2 s. In addition, in data set [3], the “PT” value is recorded as 13.8 ± 0.3 s.
Consider `CN(C)CCCn1c2ccccc2c2nc3ccccc3nc21` [Compound 1j], for which the “APTT” value in data set [1] was found to be 32.5 ± 0.1 s. Also, in data set [2], the “TT” value came to 22.0 ± 2.7 s. In data set [3], the “PT” value was found to be 14.2 ± 0.4 s.
Take `C1=C(c2ccccc2)n2ncnc2NC1c1ccccc1` (centres unmarked) [Compound 5a]: in data set [1], the “APTT” value was 26.3 ± 2.9 s. Moreover, in data set [2], the “increase of thrombin time relative to the control” value is reported as 3.5 times and the “TT” value is recorded as 43.8 ± 4.3 s. In addition, the “PT” value in data set [3] is listed as 13.4 ± 0.1 s.
Consider `C1=C(c2ccccc2)n2ncnc2NC1c1cccs1` (centres unmarked) [Compound 5b], for which the “APTT” value in data set [1] is listed as 25.9 ± 2.2 s. In addition, the “TT” value in data set [2] came out at 21.0 ± 0.0 s. Moreover, in data set [3], the “PT” value was 15.8 ± 0.3 s.
For `C1=C(c2cccs2)n2ncnc2NC1c1ccccc1` (centres unmarked) [Compound 5c] the same measures were 27.6 ± 1.9 s, 41.4 ± 3.1 s and 13.9 ± 0.2 s.
In turn, `Nc1ccc(-c2cc(-c3ccc(N)cc3)n3ccnc3n2)cc1` [Compound 7a, 4,4′-(Imidazo[1,2-a]pyrimidine-5,7-diyl)dianiline] registered a melting point of 169 to 171 °C. Besides, the “APTT” value in data set [1] was 56.23 ± 5.05 s. Moreover, in data set [2], the “anticoagulant activity / thrombin time prolongation compared with dabigatran etexilate” value is given as “comparable to dabigatran etexilate in terms of activity” and the “TT” value came out at 66.58 ± 4.64 s. Moreover, the “PT” value in data set [3] amounted to 11.62 ± 1.00 s.
`Nc1ccc(-c2cc(-c3cccs3)n3ncnc3n2)cc1` [Compound 7b, 4-(7-(Thiophen-2-yl)-[1,2,4]triazolo[1,5-a]pyrimidin-5-yl)aniline] registered a melting point of 211 to 214 °C. Moreover, in data set [1], the “APTT” value is 35.0 ± 0.2 s. In data set [2], the “TT” value was 32.3 ± 0.9 s. The “PT” value in data set [3] was 13.6 ± 0.5 s.
In the case of `CCOC(=O)C1=C(C)Nc2ncnn2C1c1ccccc1` (centres unmarked) [Compound 8c], the “APTT” value in data set [1] came out at 34.6 ± 0.7 s. Besides, in data set [2], the “TT” value was found to be 34.7 ± 0.7 s. For the same compound, the “PT” value in data set [3] stood at 14.2 ± 0.1 s.
Compound `CCOC(=O)C1=C(C)Nc2ncnn2C1c1cccc(NC(=O)CN)c1` (centres unmarked) [Compound 10a, Ethyl 7-(3-(2-aminoacetamido)phenyl)-5-methyl-4,7-dihydro-[1,2,4]triazolo[1,5-a]pyrimi-dine-6-carboxylate] registered a melting point of 270 to 272 °C. Further, in data set [1], the “APTT” value came to 30.9 ± 0.6 s. In data set [2], the “increase of thrombin time relative to the control” value came out at 3.5 times and the “TT” value amounted to 48.6 ± 22.4 s. For the same compound, the “PT” value in data set [3] was found to be 13.2 ± 1.0 s.
For `CCOC(=O)C1=C(C)Nc2ncnn2C1c1ccc(NC(=O)CN)cc1` (centres unmarked) [Compound 10b, Ethyl 7-(4-(2-aminoacetamido)phenyl)-5-methyl-4,7-dihydro-[1,2,4]triazolo[1,5-a]pyrimi-dine-6-carboxy-late], the melting point was in the range of 270 to 272 °C. In addition, the “APTT” value in data set [1] came out at 30.6 ± 2.6 s. The “TT” value in data set [2] amounted to 27.1 ± 1.4 s. Also, the “PT” value in data set [3] worked out at 12.7 ± 0.2 s.
In the case of `COC1C([N+](=O)[O-])=CNc2nc(C(F)(F)F)nn21` (centres unmarked) [Compound 12a, 2-Trifluoromethyl-6-nitro-7-methoxy-4,7-dihydro[1,5-a]pyrimidyl-4 guanidate], the “APTT” value in data set [1] was determined as 25.1 ± 0.8 s. In addition, the “TT” value in data set [2] is recorded as 24.3 ± 3.5 s. Also, the “PT” value in data set [3] was 14.2 ± 0.1 s.
As for `O=[N+]([O-])C1=NNc2ncnn2C1O` (centres unmarked) [Compound 14, 6-Nitro-7-hydroxy-4,7-dihydro-1,2,4-triazolo[5,1-c]triazinyl-4 guanidate], in data set [1], the “APTT” value is recorded as 24.5 ± 0.8 s. The “TT” value in data set [2] was determined as 23.8 ± 3.5 s. In addition, in data set [3], the “PT” value is 14.5 ± 0.5 s.
On the same counts, the results for `N=C(N)Nc1nnc2ncc(SCc3ccccc3)n2n1` [Compound 15a] are 34.0 ± 0.6 s, 32.8 ± 0.8 s and 14.5 ± 0.3 s.
For the compound `CCCCCCCCCCCCSc1cnc2nnc(NC(=N)N)nn12` [Compound 15b], the “APTT” value in data set [1] came out at 34.1 ± 0.5 s. The “TT” value in data set [2] is given as 33.7 ± 0.6 s. In addition, the “PT” value in data set [3] is on record as 14.0 ± 0.2 s.
`N=C(N)Nc1nnc2nnc(SCc3cccc(F)c3)n2n1` [Compound 16] had a melting point of 235 to 237 °C. Also, in data set [1], the “APTT” value came out at 26.3 ± 1.1 s. Besides, the “TT” value in data set [2] came out at 25.9 ± 1.6 s. Also, in data set [3], the “PT” value is 14.1 ± 0.3 s.
On the same counts, the results for `CCCCCCCCSc1nnc2nnc(NC(=N)N)nn12` [Compound 16a, 6-Guanidino-3-octylthio-[1,2,4]triazolo[4,3-b][1,2,4,5]tetrazine] are above 260 °C, 29.1 ± 1.4 s, 34.3 ± 4.7 s and 12.2 ± 0.2 s.
For `N=C(N)Nc1nnc2nnc(SC3CCCC3)n2n1` [Compound 16b, 6-Guanidino-3-cyclopentylthio-[1,2,4]triazolo[4,3-b][1,2,4,5]tetrazine] the same measures were 252 to 253 °C, 24.7 ± 1.2 s, 22.7 ± 1.7 s and 13.9 ± 0.5 s.
